This is an account of results in US20090156517A1, “STABLE PHARMACEUTICAL COMPOSITIONS OF AMINOGLYCOSIDE ANTIBIOTICS, ION-CHELATING AGENTS, AND BUFFERS” (priority 2006, published 2009).

The data set in a line: Amounts of antibiotic components in the solution over time (reverse-phase LC/UV for β-lactams and β-lactamase inhibitors, HPLC/evaporation-light-scattering for aminoglycosides). It counts as physicochemical. The method, then:
The amounts of β-lactam antibiotics and β-lactamase inhibitor were determined using C18 reverse-phase LC and UV-VIS detector (Tianjin […] Co., Ltd., analysis method No. HM-K-03). The content of aminoglycoside antibiotics was measured using reverse-phase HPLC and evaporation-light-scattering detector (Tianjin […] Co., Ltd., analysis method No. HM-K-08). […] The relative amount of each antibiotic component in the composition at each time point was expressed as peak area ratio with respect to the corresponding peak area of an external standard.

[1] abbreviates: Example 6 solution (cefoperazone sodium, sulbactam sodium, etimicin sulfate, disodium EDTA, sodium citrate pH 6.5), room temperature, 0 h.
The mark [2] stands for this setting: Example 6 solution (cefoperazone sodium, sulbactam sodium, etimicin sulfate, disodium EDTA, sodium citrate pH 6.5), room temperature, 1 h.
[3] abbreviates: Example 6 solution (cefoperazone sodium, sulbactam sodium, etimicin sulfate, disodium EDTA, sodium citrate pH 6.5), room temperature, 2 h.
Setting [4] is: Example 6 solution (cefoperazone sodium, sulbactam sodium, etimicin sulfate, disodium EDTA, sodium citrate pH 6.5), room temperature, 4 h.
Where [5] appears, read: Example 7 solution (ceftriaxone sodium, sulbactam sodium, etimicin sulfate, disodium EDTA, sodium citrate pH 6.5), room temperature, 0 h.
Setting [6] is: Example 7 solution (ceftriaxone sodium, sulbactam sodium, etimicin sulfate, disodium EDTA, sodium citrate pH 6.5), room temperature, 1 h.
The mark [7] stands for this setting: Example 7 solution (ceftriaxone sodium, sulbactam sodium, etimicin sulfate, disodium EDTA, sodium citrate pH 6.5), room temperature, 2 h.
Where [8] appears, read: Example 7 solution (ceftriaxone sodium, sulbactam sodium, etimicin sulfate, disodium EDTA, sodium citrate pH 6.5), room temperature, 4 h.
[9] abbreviates: Example 7 solution (ceftriaxone sodium, sulbactam sodium, etimicin sulfate, disodium EDTA, sodium citrate pH 6.5), room temperature, 6 h.
[10] abbreviates: Example 7 solution (ceftriaxone sodium, sulbactam sodium, etimicin sulfate, disodium EDTA, sodium citrate pH 6.5), room temperature, 8 h.
The mark [11] stands for this setting: Example 11: solution of Example 10 freeze-dried, stored 7 days at 0° C., redissolved, pH 6.0, etimicin sulfate and disodium EDTA added, 0 h.
Setting [12] is: Example 11: solution of Example 10 freeze-dried, stored 7 days at 0° C., redissolved, pH 6.0, etimicin sulfate and disodium EDTA added, 1 h.
Setting [13] is: Example 11: solution of Example 10 freeze-dried, stored 7 days at 0° C., redissolved, pH 6.0, etimicin sulfate and disodium EDTA added, 2 h.
Setting [14] is: Example 11: solution of Example 10 freeze-dried, stored 7 days at 0° C., redissolved, pH 6.0, etimicin sulfate and disodium EDTA added, 4 h.
Where [15] appears, read: Example 11: solution of Example 10 freeze-dried, stored 7 days at 0° C., redissolved, pH 6.0, etimicin sulfate and disodium EDTA added, 6 h.
The mark [16] stands for this setting: Example 11: solution of Example 10 freeze-dried, stored 7 days at 0° C., redissolved, pH 6.0, etimicin sulfate and disodium EDTA added, 8 h.
Where [17] appears, read: Example 10: piperacillin sodium/sulbactam sodium solution cryopreserved 7 days, thawed, pH 6.0, etimicin sulfate added, no EDTA, 0 h.
Where [18] appears, read: Example 10: piperacillin sodium/sulbactam sodium solution cryopreserved 7 days, thawed, pH 6.0, etimicin sulfate added, no EDTA, 1 h.
Setting [19] is: Example 10: piperacillin sodium/sulbactam sodium solution cryopreserved 7 days, thawed, pH 6.0, etimicin sulfate added, no EDTA, 2 h.
Where [20] appears, read: Example 10: piperacillin sodium/sulbactam sodium solution cryopreserved 7 days, thawed, pH 6.0, etimicin sulfate added, no EDTA, 4 h.
The mark [21] stands for this setting: Example 10: piperacillin sodium/sulbactam sodium solution cryopreserved 7 days, thawed, pH 6.0, etimicin sulfate added, no EDTA, 6 h.
[22] abbreviates: Example 10: piperacillin sodium/sulbactam sodium solution cryopreserved 7 days, thawed, pH 6.0, etimicin sulfate added, no EDTA, 8 h.

Take `CCN[C@@H]1C[C@H](N)[C@@H](O[C@H]2O[C@H](CN)CC[C@H]2N)[C@H](O)[C@H]1O[C@H]1OC[C@](C)(O)[C@H](NC)[C@H]1O` [Etimicin, etimicin]: the “Amount of component, percentage of amount at initial time” value under setting [1] stood at 108.9%; the “Amount of component, percentage of amount at initial time” value under setting [2] was 100.2%; the “Amount of component, percentage of amount at initial time” value under setting [3] is reported as 100.5%; the “Amount of component, percentage of amount at initial time” value under setting [4] worked out at 100.4%; the “Amount of component, percentage of amount at initial time” value (Example 6 solution (cefoperazone sodium, sulbactam sodium, etimicin sulfate, disodium EDTA, sodium citrate pH 6.5), room temperature, 6 h) was determined as 100.4%; the “Amount of component, percentage of amount at initial time” value (Example 6 solution (cefoperazone sodium, sulbactam sodium, etimicin sulfate, disodium EDTA, sodium citrate pH 6.5), room temperature, 8 h) was determined as 97.50%. The “Amount of component, percentage of amount at initial time” value was 100.7% under setting [5]; 101.0% under setting [6]; 101.0% under setting [7]; 101.0% under setting [8]; 100.8% under setting [9]; 100.7% under setting [10]. Also, the “Amount of component, percentage of amount at initial time” value under setting [11] stood at 94.81%; the “Amount of component, percentage of amount at initial time” value under setting [12] is on record as 99.66%; the “Amount of component, percentage of amount at initial time” value under setting [13] came to 100.9%; the “Amount of component, percentage of amount at initial time” value under setting [14] is recorded as 101.5%; the “Amount of component, percentage of amount at initial time” value under setting [15] is reported as 96.97%; the “Amount of component, percentage of amount at initial time” value under setting [16] is recorded as 94.44%. For the same compound, the “Amount of component, percentage of amount at initial time” value worked out at 100% (Example 14: cefoperazone sodium/tazobactam sodium solution pH 6.75, etimicin sulfate added, 0 h); 98.8% (Example 14: cefoperazone sodium/tazobactam sodium solution pH 6.75, etimicin sulfate added, 1 h); 97.5% (Example 14: cefoperazone sodium/tazobactam sodium solution pH 6.75, etimicin sulfate added, 2 h); 98.4% (Example 14: cefoperazone sodium/tazobactam sodium solution pH 6.75, etimicin sulfate added, 4 h); 95.6% (Example 14: cefoperazone sodium/tazobactam sodium solution pH 6.75, etimicin sulfate added, 6 h); 92.8% (Example 14: cefoperazone sodium/tazobactam sodium solution pH 6.75, etimicin sulfate added, 8 h).
For the compound `CC1(C)S[C@@H]2[C@H](NC(=O)[C@H](NC(=O)N3CCN(S(C)(=O)=O)C3=O)c3ccccc3)C(=O)N2[C@H]1C(=O)O` [Mezlocillin sodium, mezlocillin sodium], the “Amount of component, percentage of amount at initial time” value is, setting by setting: (Example 9: freeze-dried amikacin sulfate/disodium EDTA/citrate pH 6.5 powder stored 7 days at 0° C., redissolved, mezlocillin sodium added, 0 h) 94.68%; (Example 9: freeze-dried amikacin sulfate/disodium EDTA/citrate pH 6.5 powder stored 7 days at 0° C., redissolved, mezlocillin sodium added, 1 h) 95.90%; (Example 9: freeze-dried amikacin sulfate/disodium EDTA/citrate pH 6.5 powder stored 7 days at 0° C., redissolved, mezlocillin sodium added, 2 h) 71.70%; (Example 9: freeze-dried amikacin sulfate/disodium EDTA/citrate pH 6.5 powder stored 7 days at 0° C., redissolved, mezlocillin sodium added, 4 h) 91.78%; (Example 9: freeze-dried amikacin sulfate/disodium EDTA/citrate pH 6.5 powder stored 7 days at 0° C., redissolved, mezlocillin sodium added, 6 h) 93.08%; (Example 9: freeze-dried amikacin sulfate/disodium EDTA/citrate pH 6.5 powder stored 7 days at 0° C., redissolved, mezlocillin sodium added, 8 h) 97.69%.
As to `CCN1CCN(C(=O)N[C@@H](C(=O)N[C@@H]2C(=O)N3[C@@H]2SC(C)(C)[C@@H]3C(=O)O)c2ccccc2)C(=O)C1=O` [Piperacillin, piperacillin], the “Amount of component, percentage of amount at initial time” value under setting [17] amounted to 101.8%; the “Amount of component, percentage of amount at initial time” value under setting [18] came out at 101.3%; the “Amount of component, percentage of amount at initial time” value under setting [19] was found to be 101.8%; the “Amount of component, percentage of amount at initial time” value under setting [20] came to 101.2%; the “Amount of component, percentage of amount at initial time” value under setting [21] came to 98.3%; the “Amount of component, percentage of amount at initial time” value under setting [22] is 95.1%. Further, the “Amount of component, percentage of amount at initial time” value was 101.8% under setting [11]; 101.3% under setting [12]; 101.8% under setting [13]; 101.2% under setting [14]; 98.3% under setting [15]; 95.1% under setting [16]. Further, the “Amount of component, percentage of amount at initial time” value was 101.8% (Example 12: thawed solution from Example 10, pH 6.0, amikacin sulfate added, no EDTA, 0 h); 101.3% (Example 12: thawed solution from Example 10, pH 6.0, amikacin sulfate added, no EDTA, 1 h); 101.8% (Example 12: thawed solution from Example 10, pH 6.0, amikacin sulfate added, no EDTA, 2 h); 101.2% (Example 12: thawed solution from Example 10, pH 6.0, amikacin sulfate added, no EDTA, 4 h); 98.3% (Example 12: thawed solution from Example 10, pH 6.0, amikacin sulfate added, no EDTA, 6 h); 95.1% (Example 12: thawed solution from Example 10, pH 6.0, amikacin sulfate added, no EDTA, 8 h).
Regarding `CC1(C)[C@H](C(=O)O)N2C(=O)C[C@H]2S1(=O)=O` [Sulbactam sodium, sulbactam sodium], the “Amount of component, percentage of amount at initial time” value runs as follows: (Example 4 solution (cefoperazone sodium, sulbactam sodium, gentamicin, sodium citrate pH 6.75, no EDTA), room temperature, 0 h) 101.4%; (Example 4 solution (cefoperazone sodium, sulbactam sodium, gentamicin, sodium citrate pH 6.75, no EDTA), room temperature, 1 h) 101.4%; (Example 4 solution (cefoperazone sodium, sulbactam sodium, gentamicin, sodium citrate pH 6.75, no EDTA), room temperature, 2 h) 101.5%; (Example 4 solution (cefoperazone sodium, sulbactam sodium, gentamicin, sodium citrate pH 6.75, no EDTA), room temperature, 4 h) 109.7%; (Example 4 solution (cefoperazone sodium, sulbactam sodium, gentamicin, sodium citrate pH 6.75, no EDTA), room temperature, 6 h) 103.2%; (Example 5 solution (cefoperazone sodium, sulbactam sodium, gentamicin, disodium EDTA, sodium citrate pH 6.75), room temperature, 0 h) 101.4%. Besides, the “Amount of component, percentage of amount at initial time” value by setting is: (Example 5 solution (cefoperazone sodium, sulbactam sodium, gentamicin, disodium EDTA, sodium citrate pH 6.75), room temperature, 1 h) 101.4%; (Example 5 solution (cefoperazone sodium, sulbactam sodium, gentamicin, disodium EDTA, sodium citrate pH 6.75), room temperature, 2 h) 101.5%; (Example 5 solution (cefoperazone sodium, sulbactam sodium, gentamicin, disodium EDTA, sodium citrate pH 6.75), room temperature, 4 h) 109.7%; (Example 5 solution (cefoperazone sodium, sulbactam sodium, gentamicin, disodium EDTA, sodium citrate pH 6.75), room temperature, 6 h) 103.2%; under setting [1], 99.62%; under setting [2], 100.4%. Moreover, the “Amount of component, percentage of amount at initial time” value under setting [3] is 100.2%; the “Amount of component, percentage of amount at initial time” value under setting [4] was found to be 100.2%; the “Amount of component, percentage of amount at initial time” value under setting [5] turned out to be 96.84%; the “Amount of component, percentage of amount at initial time” value under setting [6] was determined as 94.43%; the “Amount of component, percentage of amount at initial time” value under setting [7] amounted to 93.35%; the “Amount of component, percentage of amount at initial time” value under setting [8] is given as 93.23%. Further, the “Amount of component, percentage of amount at initial time” value is given as 92.13% under setting [9]; 93.38% under setting [10]; 94.1% under setting [17]; 97.4% under setting [18]; 96.4% under setting [19]; 97.7% under setting [20]. Besides, the “Amount of component, percentage of amount at initial time” value reads like this: under setting [21], 96.9%; under setting [22], 97.1%.
